Measurements published in US20260306968A1, “METHOD FOR THE SEPARATION OF PHOSPHORUS STEREOISOMERS OF REMDESIVIR USING LIQUID-LIQUID CHROMATOGRAPHY” (ROTACHROM TECHNOLÓGIAI ZRT., priority 2023, published 2026).

Key:
[1] = Dissolving ability of the preferred solvent systems for the remdesivir mixture; format: physicochemical
Method: The preferred solvent systems are characterized by a short settling time (less than 30 sec), a good dissolving ability (more than 20 mg racemic mixture of remdesivir can be dissolved in 1 mL of the solvent system), while from the toxicological aspect, their components can be categorized into class 3 and/or class 4 solvents classes.

[2] = Várnai et al., J. Pharm. Biomed. Anal., 2021; cited from earlier work

**Q.** Which “amount that can be dissolved in 1 mL of the solvent system” value [1] does the source give for `CCC(CC)COC(=O)[C@H](C)NP(=O)(OC[C@H]1O[C@@](C#N)(c2ccc3c(N)ncnn23)[C@H](O)[C@@H]1O)Oc1ccccc1` (mixture of isomers) [racemic mixture of remdesivir] here?
**A.** more than 20 mg

**Q.** For `CCC(CC)COC(=O)[C@H](C)N[P@](=O)(OC[C@H]1O[C@@](C#N)(c2ccc3c(N)ncnn23)[C@H](O)[C@@H]1O)Oc1ccccc1` [remdesivir], which “ionization constant (basic pka)” value [2] is on record?
**A.** 3.56
